What is called melting point is the temperature, or range, at which the solid turns liquid. As for `COc1ccc(CNc2nc(CCC(=O)O)nc3sc4c(c23)CCCC4)cc1Cl` [Example 2, 3-[4-(3-chloro-4-methoxybenzylamino)-5,6,7,8-tetrahydro-[1]-benzothieno-[2,3-d]-pyrimidin-2-yl]propionic acid], the melting point turned out to be 229 °C.
